Experimental data taken from EP4534147A1, “STING ANTAGONIST COMPOUNDS” (Sulis Therapeutics ApS, priority 2023, dated 2025).

Columns and labels:
STING = biological target: T1, STING (Homo sapiens, UniProt Q86WV6); test: Human FB STING antagonist assay (IFN-a/b release); assay type: cell-based; details: Human skin fibroblasts, 2h pre-treatment, 300 nM GSK STING agonist (CAS number: 2138299-34-8) for 20 h, release of IFN-a/b by HEK-Blue IFN-α/β bioassay
T1 construct: endogenous in cells; host or cells: human skin fibroblasts
Protocol: STING antagonist activity can be determined by a human fibroblast antagonist assay. For this, human skin fibroblasts are pre-treated for 2h with a serial dilution of the compound, and are then stimulated for 20 hours with 300 nM STING agonist (e.g. from GSK, CAS number: 2138299-34-8). Supernatants are then harvested and assessed for IFN-a/b release, which indicates STING activation. IFN-a/b concentration in the supernatant is determined, e.g. using an IFN-α/β bioassay. IC50 values are calculated using a non-linear regression fitting, variable slope (4 parameters).
Human skin fibroblasts were pre-treated for 2h with a serial dilution of test compound followed by stimulation with mock or 300 nM GSK STING agonist (CAS number: 2138299-34-8). Supernatants were harvested after 20 h of STING agonist stimulation. Release of IFN-a/b was determined using HEK-Blue IFN-α/β bioassay (Invivogen). Cellular viability was assessed using Alamar Blue HS assay. IC50 values were estimated using a non-linear regression fitting, variable slope (4 parameters) in GraphPad Prism 9.3.1.

[1] = biological target: C-terminal domain (CTD) of human STING (Homo sapiens, UniProt Q86WV6); test: STING binding FP assay II (as FP assay I, lower STING concentration); set-up: recombinant human STING protein (155-379); details: 7 nM STING in buffer A, 4 nM fluorescein-labelled STING ligand (Probe 1)
Protocol: The interaction between molecules and the C-terminal domain (CTD) of human STING was evaluated using a competition binding assay. In this assay, recombinant human STING protein (155-379) and a STING binding fluorescent probe were employed. Upon binding of the probe to STING, the rotation of the fluorescent probe is slowed due to the larger molecular size of the protein-bound complex. As a result, emitted light retains its plane of polarization, leading to an increase in fluorescence polarization. Molecules competing for the probe binding site displace the probe, which leads to rapid randomization of the polarization plane of the emitted light and a subsequent decrease in measured fluorescence polarization signal. Change in polarization was measured, allowing a comparative evaluation of the binding affinities of different compounds to the target protein.
The assay was performed in 96-well plates (ThermoFisher, cat.# 237108) containing 100 µl : 10 µL test compound in 10% DMSO and buffer A (150 mM NaCl, 50 mM HEPES pH 7.5, 1 mM DTT) + 90 µL prepared master mix solution of: 4 nM fluorescein-labelled STING ligand (Probe 1; synthesis described above) in buffer A + 0.055% Tween-20 (v/v) and 35 nM STING in buffer A. Post mixing, plates were agitated at 600 rpm and incubated for 20 min at room temperature. Subsequent measurements of the fluorescence polarization signal were made on a BioTek Synergy-H1 plate reader, using a polarization filter; excitation: 485/20 nm, emission: 528/20 nm) with a gain-setting of 75. IC50 values were determined using a standard non-linear regression four-parameter curve fit in Graphpad Prism.
The procedure for STING binding FP assay II is the same as described for STING binding FP assay I, except for a lower STING concentration. In STING binding FP assay II, a concentration of 7 nM STING in buffer A was used.

Sequence of C-terminal domain (CTD) of human STING (Q86WV6 155-379): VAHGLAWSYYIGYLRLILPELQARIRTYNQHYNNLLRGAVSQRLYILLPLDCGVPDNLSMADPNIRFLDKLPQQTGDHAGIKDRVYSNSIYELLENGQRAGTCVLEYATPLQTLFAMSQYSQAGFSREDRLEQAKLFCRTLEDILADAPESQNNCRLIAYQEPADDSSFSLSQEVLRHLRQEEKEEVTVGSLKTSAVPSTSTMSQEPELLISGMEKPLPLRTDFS
T1 sequence (Q86WV6 whole entry): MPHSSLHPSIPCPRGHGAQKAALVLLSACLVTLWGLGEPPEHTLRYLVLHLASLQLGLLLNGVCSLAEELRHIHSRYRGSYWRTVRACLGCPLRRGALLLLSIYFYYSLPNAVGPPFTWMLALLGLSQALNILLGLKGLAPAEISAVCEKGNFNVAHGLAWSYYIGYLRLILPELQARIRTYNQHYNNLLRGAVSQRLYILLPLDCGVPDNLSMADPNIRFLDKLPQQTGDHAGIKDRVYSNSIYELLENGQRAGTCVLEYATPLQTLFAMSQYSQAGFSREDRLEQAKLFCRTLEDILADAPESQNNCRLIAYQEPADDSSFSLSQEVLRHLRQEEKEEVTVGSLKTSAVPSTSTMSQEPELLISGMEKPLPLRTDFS

Row | SMILES | IC50 (STING) | IC50 [1]
1 | CCOC(=O)COC(CCn1c(NC(=O)c2cc(C)nn2CC)nc2cc(C(N)=O)ccc21)CCn1c(NC(=O)c2cc(C)nn2CC)nc2cc(C(N)=O)ccc21 [Example 1, Ethyl {3-[5-carbamoyl-2-(1-ethyl-3-methyl-5-pyrazolylcarbonylamino)-1H-1,3-benzimidazol-1-yl]-1-{2-[5-carbamoyl-2-(1-ethyl-3-methyl-5-pyrazolylcarbonylamino)-1H-1,3-benzimidazol-1-yl]ethyl}propoxy}acetate] | 3200 nM | 
2 | CCn1nc(C)cc1C(=O)N=c1n(C)c2cc(C(N)=O)ccc2n1CCC(CCn1c(=NC(=O)c2cc(C)nn2CC)n(C)c2cc(C(N)=O)ccc21)OCC(=O)N1CCN(C(C)=O)CC1 (centres unmarked) [Example 12, 1-{3-[2-(4-Acetyl-1-piperazinyl)-2-oxoethoxy]-5-{5-carbamoyl-2-[(1-ethyl-3-methyl-5-pyrazolyl)carbonylimino]-3-methyl-2,3-dihydro-1H-1,3-benzimidazol-1-yl}pentyl}-2-[(1-ethyl-3-methyl-5-pyrazolyl)carbonylimino]-3-methyl-2,3-dihydro-1H-1,3-benzimidazole-5-carboxamide] | 9800 nM | 1.7 nM
3 | CCn1nc(C)cc1C(=O)N=c1n(C)c2cc(C(N)=O)ccc2n1CCC(CCn1c(=NC(=O)c2cc(C)nn2CC)n(C)c2cc(C(N)=O)ccc21)OCC(=O)N(CCOC)CCOC (centres unmarked) [Example 13, 1-(3-{[Bis(2-methoxyethyl)carbamoyl]methoxy}-5-{5-carbamoyl-2-[(1-ethyl-3-methyl-5-pyrazolyl)carbonylimino]-3-methyl-2,3-dihydro-1H-1,3-benzimidazol-1-yl}pentyl)-2-[(1-ethyl-3-methyl-5-pyrazolyl)carbonylimino]-3-methyl-2,3-dihydro-1H-1,3-benzimidazole-5-carboxamide] | 7800 nM | 2 nM
4 | CCn1nc(C)cc1C(=O)N=c1n(C)c2cc(C(N)=O)ccc2n1CCC(CCn1c(=NC(=O)c2cc(C)nn2CC)n(C)c2cc(C(N)=O)ccc21)OCC(=O)Nc1cc(C)[nH]n1 (centres unmarked) [Example 22, 1-{3-[(N-5-Methyl-3-pyrazolylcarbamoyl)methoxy]-5-{5-carbamoyl-2-[(1-ethyl-3-methyl-5-pyrazolyl)carbonylimino]-3-methyl-2,3-dihydro-1H-1,3-benzimidazol-1-yl}pentyl}-2-[(1-ethyl-3-methyl-5-pyrazolyl)carbonylimino]-3-methyl-2,3-dihydro-1H-1,3-benzimidazole-5-carboxamide] | 6000 nM | 12.8 nM
5 | CCn1nc(C)cc1C(=O)N=c1n(C)c2cc(C(N)=O)ccc2n1CCC(CCn1c(=NC(=O)c2cc(C)nn2CC)n(C)c2cc(C(N)=O)ccc21)OCC(=O)N1CCC[C@H]1C(=O)N1CCc2cc(OC)ccc2C1 (stereo partly drawn) [Example 26, 1-[3-(2-{(S)-2-[(6-Methoxy-1,2,3,4-tetrahydro-2-isoquinolyl)carbonyl]-1-pyrrolidinyl}-2-oxoethoxy)-5-{5-carbamoyl-2-[(1-ethyl-3-methyl-5-pyrazolyl)carbonylimino]-3-methyl-2,3-dihydro-1H-1,3-benzimidazol-1-yl}pentyl]-2-[(1-ethyl-3-methyl-5-pyrazolyl)carbonylimino]-3-methyl-2,3-dihydro-1H-1,3-benzimidazole-5-carboxamide] | 1400 nM | 3.5 nM
6 | CCn1nc(C)cc1C(=O)N=c1n(C)c2cc(C(N)=O)ccc2n1CCC(CCn1c(=NC(=O)c2cc(C)nn2CC)n(C)c2cc(C(N)=O)ccc21)OCC(=O)N1CCC[C@H]1c1nnn[nH]1 (stereo partly drawn) [Example 28, 1-(3-{2-[(S)-2-(1H-Tetrazol-5-yl)-1-pyrrolidinyl]-2-oxoethoxy}-5-{5-carbamoyl-2-[(1-ethyl-3-methyl-5-pyrazolyl)carbonylimino]-3-methyl-2,3-dihydro-1H-1,3-benzimidazol-1-yl}pentyl)-2-[(1-ethyl-3-methyl-5-pyrazolyl)carbonylimino]-3-methyl-2,3-dihydro-1H-1,3-benzimidazole-5-carboxamide] | 3900 nM | 8.4 nM
